Tests used:
Format in all cases: in vivo
[1] = tested on: sedge, umbrella (small-flower umbrella sedge, Cyperus difformis); assay: Test B flooded paddy test; conditions: Flood, 0 to 100 scale where 0 is no effect and 100 is complete control, 13 to 15 d
Description: (§1) Plant species in the flooded paddy test selected from rice (Oryra sativa), sedge, umbrella (small-flower umbrella sedge, Cyperus difformis), ducksalad (Heteranthera limosa), and barnyardgrass (Echinochloa crus-galli) were grown to the 2-leaf stage for testing. At time of treatment, test pots were flooded to 3 cm above the soil surface, treated by application of test compounds directly to the paddy water, and then maintained at that water depth for the duration of the test. Treated plants and controls were maintained in a greenhouse for 13 to 15 d, after which time all species were compared to controls and visually evaluated. Plant response ratings, summarized in Table B, are based on a scale of 0 to 100 where 0 is no effect and 100 is complete control. A dash (-) response means no test result.

[2] = tested on: barnyardgrass (Echinochloa crus-galli); assay: Test B flooded paddy test; conditions: Flood, 0 to 100 scale where 0 is no effect and 100 is complete control, 13 to 15 d
Description: as §1

rice (Oryra sativa) = assay: Test B flooded paddy test; conditions: Flood, 0 to 100 scale where 0 is no effect and 100 is complete control, 13 to 15 d
Description: as §1

[3] = tested on: ducksalad (Heteranthera limosa); assay: Test B flooded paddy test; conditions: Flood, 0 to 100 scale where 0 is no effect and 100 is complete control, 13 to 15 d
Description: as §1

[4] = tested on: barnyardgrass (Echinochloa crus-galli); assay: Test A postemergence
Source text: (§2) Seeds of plant species selected from barnyardgrass (Echinochloa crus-galli), Kochia (Kochia scoparia), ragweed (common ragweed, Ambrosia elatior), ryegrass, Italian (Italian ryegrass, Lolium multiflorum), crabgrass, large (Digitaria sanguinalis), giant foxtail (Setaria faberii), green foxtail (Setaria viridis), morningglory (Ipomoea spp.), pigweed (Amaranthus retroflexus), velvetleaf (Abutilon theophrasti), wheat (Triticum aestivum), and corn (Zea mays) were planted into a blend of loam soil and sand and treated preemergence with a directed soil spray using test chemicals formulated in anon-phytotoxic solvent mixture which included a surfactant.
(§3) At the same time, plants selected from these crop and weed species and also blackgrass (Alopecurus myosuroides), and Galium (catchweed bedstraw, Galium aparine) were planted in pots containing the same blend of loam soil and sand and treated with postemergence applications of test chemicals formulated in the same manner. Plants ranged in height from 2 to 10 cm and were in the one- to two-leaf stage for the postemergence treatment. Treated plants and untreated controls were maintained in a greenhouse for approximately 10 d, after which time all treated plants were compared to untreated controls and visually evaluated for injury. Plant response ratings, summarized in Table A, are based on a 0 to 100 scale where 0 is no effect and 100 is complete control. A dash (-) response means no test result.

[5] = tested on: blackgrass (Alopecurus myosuroides); assay: Test A postemergence
Source text: as §2, §3

[6] = tested on: ryegrass, Italian (Italian ryegrass, Lolium multiflorum); assay: Test A postemergence; conditions: for Ryegrass, Italian plant response rating: 125 g ai/ha, visual injury rating on 0 to 100 scale (0 no effect, 100 complete control), approx. 10 d; for Plant response rating, Ryegrass, Italian: 500 g ai/ha
Source text: as §2, §3

[7] = tested on: wheat (Triticum aestivum); assay: Test A postemergence; conditions: for Wheat plant response rating: 125 g ai/ha, visual injury rating on 0 to 100 scale (0 no effect, 100 complete control), approx. 10 d; for Plant response rating, Wheat: 500 g ai/ha
Source text: as §2, §3

Kochia (Kochia scoparia) [8] = assay: Test A postemergence; conditions: for Kochia plant response rating: 125 g ai/ha, visual injury rating on 0 to 100 scale (0 no effect, 100 complete control), approx. 10 d; for Plant response rating, Kochia: 500 g ai/ha
Source text: as §2, §3

[9] = tested on: Galium (catchweed bedstraw, Galium aparine); assay: Test A postemergence; conditions: for Galium plant response rating: 125 g ai/ha, visual injury rating on 0 to 100 scale (0 no effect, 100 complete control), approx. 10 d; for Plant response rating, Galium: 500 g ai/ha
Source text: as §2, §3

[10] = tested on: pigweed (Amaranthus retroflexus); assay: Test A postemergence; conditions: for Pigweed plant response rating: 125 g ai/ha, visual injury rating on 0 to 100 scale (0 no effect, 100 complete control), approx. 10 d; for Plant response rating, Pigweed: 500 g ai/ha
Source text: as §2, §3

corn (Zea mays) = assay: Test A postemergence; conditions: for Corn plant response rating: 125 g ai/ha, visual injury rating on 0 to 100 scale (0 no effect, 100 complete control), approx. 10 d; for Plant response rating, Corn: 500 g ai/ha
Source text: as §2, §3

[11] = tested on: giant foxtail (Setaria faberii); assay: Test A postemergence; conditions: for Foxtail, Giant plant response rating: 125 g ai/ha, visual injury rating on 0 to 100 scale (0 no effect, 100 complete control), approx. 10 d; for Plant response rating, Foxtail, Giant: 500 g ai/ha
Source text: as §2, §3

[12] = tested on: ragweed (common ragweed, Ambrosia elatior); assay: Test A postemergence; conditions: for Ragweed plant response rating: 125 g ai/ha, visual injury rating on 0 to 100 scale (0 no effect, 100 complete control), approx. 10 d; for Plant response rating, Ragweed: 500 g ai/ha
Source text: as §2, §3

[13] = tested on: barnyardgrass (Echinochloa crus-galli); assay: Test A preemergence; conditions: for Plant response rating, Barnyardgrass: 125 g ai/ha
Source text: as §2, §3

[14] = tested on: ryegrass, Italian (Italian ryegrass, Lolium multiflorum); assay: Test A preemergence; conditions: for Plant response rating, Ryegrass, Italian: 125 g ai/ha
Source text: as §2, §3

Kochia (Kochia scoparia) [15] = assay: Test A preemergence; conditions: for Plant response rating, Kochia: 125 g ai/ha
Source text: as §2, §3

[16] = tested on: pigweed (Amaranthus retroflexus); assay: Test A preemergence; conditions: for Plant response rating, Pigweed: 125 g ai/ha
Source text: as §2, §3

[17] = tested on: giant foxtail (Setaria faberii); assay: Test A preemergence; conditions: for Plant response rating, Foxtail, Giant: 125 g ai/ha
Source text: as §2, §3

[18] = tested on: ragweed (common ragweed, Ambrosia elatior); assay: Test A preemergence; conditions: for Plant response rating, Ragweed: 125 g ai/ha
Source text: as §2, §3

[19] = 500 g ai/ha, postemergence, 0 to 100 scale, 0 no effect, 100 complete control
[20] = Postemergence, 125 g ai/ha, visual injury, 0 to 100 scale (0 no effect, 100 complete control), approx. 10 d
[21] = postemergence, 0 to 100 scale, 0 no effect, 100 complete control
[22] = preemergence, 0 to 100 scale (0 no effect, 100 complete control)
[23] = Preemergence, 500 g ai/ha, 0 is no effect, 100 is complete control
[24] = 125 g ai/ha, postemergence, visual injury rating on 0 to 100 scale (0 no effect, 100 complete control), approx. 10 d
[25] = Postemergence, 500 g ai/ha, 0 to 100 scale where 0 is no effect and 100 is complete control
[26] = Postemergence, 0 to 100 scale where 0 is no effect and 100 is complete control
[27] = Preemergence, visual injury after approximately 10 d, 0 to 100 scale where 0 is no effect and 100 is complete control
[28] = Preemergence, 500 g ai/ha, visual injury approx. 10 d

O=C1NCC(c2cccc(OCC(F)F)c2)C1C(=O)Nc1ccccc1F (racemic) [Compound 387]
50: Plant response rating, Barnyardgrass ([2]; 500 g ai/ha) | Plant response rating, Blackgrass [5, 19] | Foxtail, Giant plant response rating ([11]; postemergence)
75: Plant response rating, Ducksalad ([3]; 500 g ai/ha)
70: Plant response rating, Barnyardgrass [4, 19] | Plant response rating, Barnyardgrass [4, 20] | Plant response rating, Foxtail, Giant [11, 21] | Plant response rating, Barnyardgrass [13, 22] | Plant response rating, Foxtail, Giant [17, 22]
20: Plant response rating, Rice (rice (Oryra sativa); 500 g ai/ha)
80: Barnyardgrass plant response rating (0 to 100 scale) [13, 23]
90: Foxtail, Giant plant response rating (0 to 100 scale) [17, 23]
0: Plant response rating, Sedge, Umbrella ([1]; 500 g ai/ha) | Plant response rating, Blackgrass [5, 20] | Ryegrass, Italian plant response rating ([6]; postemergence) | Plant response rating, Ryegrass, Italian [6, 21] | Wheat plant response rating ([7]; postemergence) | Plant response rating, Wheat [7, 21] | Kochia plant response rating (Kochia (Kochia scoparia) [8]; postemergence) | Plant response rating, Kochia (Kochia (Kochia scoparia) [8]; [21]) | Galium plant response rating ([9]; postemergence) | Plant response rating, Galium [9, 21] | Pigweed plant response rating ([10]; postemergence) | Plant response rating, Pigweed [10, 21] | Corn plant response rating (corn (Zea mays); postemergence) | Plant response rating, Corn (corn (Zea mays); [21]) | Ragweed plant response rating ([12]; postemergence) | Plant response rating, Ragweed [12, 21] | Plant response rating, Ryegrass, Italian [14, 22] | Ryegrass, Italian plant response rating (0 to 100 scale) [14, 23] | Plant response rating, Kochia (Kochia (Kochia scoparia) [15]; [22]) | Kochia plant response rating (0 to 100 scale) (Kochia (Kochia scoparia) [15]; [23]) | Plant response rating, Pigweed [16, 22] | Pigweed plant response rating (0 to 100 scale) [16, 23] | Plant response rating, Ragweed [18, 22] | Ragweed plant response rating (0 to 100 scale) [18, 23]

Cc1ccc(C2CNC(=O)C2C(=O)Nc2ccccc2S(C)(=O)=O)c(F)c1 (racemic) [Compound 507]
20: Barnyardgrass plant response rating [4, 24] | Plant response rating, Galium [9, 26] | Plant response rating, Foxtail, Giant [11, 26] | Plant response rating, Ragweed [12, 26] | Pigweed plant response rating (0 to 100 scale, 0 is no effect, 100 is complete control) [16, 28]
0: Plant response rating, Sedge, Umbrella ([1]; 250 g ai/ha) | Plant response rating, Barnyardgrass ([2]; 250 g ai/ha) | Plant response rating, Rice (rice (Oryra sativa); 250 g ai/ha) | Blackgrass plant response rating [5, 24] | Plant response rating, Blackgrass [5, 25] | Ryegrass, Italian plant response rating ([6]; postemergence) | Plant response rating, Ryegrass, Italian [6, 26] | Wheat plant response rating ([7]; postemergence) | Plant response rating, Wheat [7, 26] | Galium plant response rating ([9]; postemergence) | Pigweed plant response rating ([10]; postemergence) | Plant response rating, Pigweed [10, 26] | Corn plant response rating (corn (Zea mays); postemergence) | Plant response rating, Corn (corn (Zea mays); [26]) | Foxtail, Giant plant response rating ([11]; postemergence) | Ragweed plant response rating ([12]; postemergence) | Plant response rating, Ryegrass, Italian [14, 27] | Ryegrass, Italian plant response rating (0 to 100 scale, 0 is no effect, 100 is complete control) [14, 28] | Plant response rating, Kochia (Kochia (Kochia scoparia) [15]; [27]) | Plant response rating, Pigweed [16, 27] | Plant response rating, Foxtail, Giant [17, 27] | Plant response rating, Ragweed [18, 27] | Ragweed plant response rating (0 to 100 scale, 0 is no effect, 100 is complete control) [18, 28]
75: Plant response rating, Ducksalad ([3]; 250 g ai/ha)
60: Plant response rating, Barnyardgrass [4, 25]
40: Plant response rating, Barnyardgrass [13, 27]
30: Kochia plant response rating (Kochia (Kochia scoparia) [8]; postemergence)
70: Plant response rating, Kochia (Kochia (Kochia scoparia) [8]; [26]) | Kochia plant response rating (0 to 100 scale, 0 is no effect, 100 is complete control) (Kochia (Kochia scoparia) [15]; [28])
50: Foxtail, Giant plant response rating (0 to 100 scale, 0 is no effect, 100 is complete control) [17, 28]
80: Barnyardgrass plant response rating (0 to 100 scale, 0 is no effect, 100 is complete control) [13, 28]

Reference: patent US12077503B2, “Substituted cyclic amides and their use as herbicides” (FMC CORPORATION, priority 2015, dated 2024)
